Experimental data published in article PMC8037182, “Solvothermal Synthesis of Multiple Dihydropyrimidinones at a Time as Inhibitors of Eg5” (Molecules, 2021).

Legend:
[1] = tested on: Hela cell line; experiment: Cytotoxicity MTS assay, Hela cell line; assay type: cell-based; details: for OD490 value, Mean / OD490 value, Well 1 / OD490 value, Well 2 / OD490 value, Well 3: Hela cell line, MTS;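 for OD490 value, Mean: blank control wells received 0.025% DMSO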;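 for OD490 value, Well 1: blank control wells received 0.025% DMSO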;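 for OD490 value, Well 2: blank control wells received 0.025% DMSO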;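 for OD490 value, Well 3: blank control wells received 0.025% DMSO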
Outline: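 IC50 reflects non-linear regression of percent cell viability on compound concentration, tested from 0.5 to 100 µM final during a 24 h exposure. Viability was read by MTS at 490 nm; monastrol served as positive control and 0.025% DMSO as blank.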

[2] = molecular target: T1, Eg5 motor protein (Homo sapiens, UniProt P52732); experiment: Lineweaver–Burk plot analysis of Eg5 ATPase inhibition; assay type: biochemical
T1 construct: Eg5 motor domain (amino acids 1-368) was cloned into pET22b; His-tag (C); made in house; host or cells: Escherichia coli BL21 (DE3)
T1 sequence (P52732 1-368): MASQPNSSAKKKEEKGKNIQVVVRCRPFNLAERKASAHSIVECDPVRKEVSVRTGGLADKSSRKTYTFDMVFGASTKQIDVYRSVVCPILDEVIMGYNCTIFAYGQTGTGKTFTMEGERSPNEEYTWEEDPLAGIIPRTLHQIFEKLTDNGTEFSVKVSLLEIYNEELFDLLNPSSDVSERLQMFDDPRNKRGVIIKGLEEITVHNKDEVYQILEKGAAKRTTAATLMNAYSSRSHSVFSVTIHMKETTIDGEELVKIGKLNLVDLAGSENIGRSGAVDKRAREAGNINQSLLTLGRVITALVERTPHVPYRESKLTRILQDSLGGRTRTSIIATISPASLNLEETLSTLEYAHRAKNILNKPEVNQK
Procedure: Assays followed methods similar to that described above for the primary Eg5 motor protein ATPase assay. For either study, compound C9 were tested at 60.50 μM, 30.25 μM, 15.13 μM, 0 μM. ATP concentration was varied from 52 μM to 417 μM. The enzyme concentration tested was 100 nM. All conditions were performed in three independent duplicate experiments. The data were analyzed with GraphPad Prism 6.02 software.
Figure 1 Steady-state inhibition of Eg5 by C9. […] Lines represent a curve fit of the global data set to a mixed-type inhibition model.

- melting point: 253 to 257 °C
- Slope of the Lineweaver-Burk plot, Mean ([2]; C9 15.13 uM): 0.649
- OD630 Value Mean ([2]; C9 15.13 uM, ATP 0.052 mM): 0.142
- OD630 Value Mean ([2]; C9 15.13 uM, ATP 0.104 mM): 0.177
- OD630 Value Mean ([2]; C9 15.13 uM, ATP 0.209 mM): 0.199
- OD630 Value Mean ([2]; C9 15.13 uM, ATP 0.313 mM): 0.226
- OD630 Value Mean ([2]; C9 15.13 uM, ATP 0.417 mM): 0.268
- Slope of the Lineweaver-Burk plot, Mean ([2]; C9 30.25 uM): 0.942
- OD630 Value Mean ([2]; C9 30.25 uM, ATP 0.052 mM): 0.126
- OD630 Value Mean ([2]; C9 30.25 uM, ATP 0.104 mM): 0.155
- OD630 Value Mean ([2]; C9 30.25 uM, ATP 0.209 mM): 0.174
- OD630 Value Mean ([2]; C9 30.25 uM, ATP 0.313 mM): 0.197
- OD630 Value Mean ([2]; C9 30.25 uM, ATP 0.417 mM): 0.231
- Slope of the Lineweaver-Burk plot, Mean ([2]; C9 60.50 uM): 1.374
- OD630 Value Mean ([2]; C9 60.5 uM, ATP 0.052 mM): 0.114
- OD630 Value Mean ([2]; C9 60.5 uM, ATP 0.104 mM): 0.138
- OD630 Value Mean ([2]; C9 60.5 uM, ATP 0.209 mM): 0.156
- OD630 Value Mean ([2]; C9 60.5 uM, ATP 0.313 mM): 0.171
- OD630 Value Mean ([2]; C9 60.5 uM, ATP 0.417 mM): 0.198
- type of Eg5 inhibition ([2]; Lineweaver–Burk plot, ATP varied 52–417 μM): mixed-type Eg5 inhibitor
- Ki ([2]; secondary plot of Lineweaver–Burk plot, slope versus concentration): 15.7 µM
Compound: CCOc1ccccc1C1NC(=S)NC(C)=C1C(=O)Nc1ccc(Cl)cc1 (stereo not shown) [C9]
- OD490 value, Mean ([1]; 0.5μM, first assay): 2.5086
- OD490 value, Well 1 ([1]; 0.5μM, first assay): 2.5337
- OD490 value, Well 2 ([1]; 0.5μM, first assay): 2.5147
- OD490 value, Well 3 ([1]; 0.5μM, first assay): 2.4773
- OD490 value, Mean ([1]; 0.5μM, second assay): 2.5027
- OD490 value, Well 1 ([1]; 0.5μM, second assay): 2.5377
- OD490 value, Well 2 ([1]; 0.5μM, second assay): 2.5102
- OD490 value, Well 3 ([1]; 0.5μM, second assay): 2.4603
- OD490 value, Mean ([1]; 0.5μM, third assay): 2.5209
- OD490 value, Well 1 ([1]; 0.5μM, third assay): 2.7845
- OD490 value, Well 2 ([1]; 0.5μM, third assay): 2.5536
- OD490 value, Well 3 ([1]; 0.5μM, third assay): 2.2245
- OD490 value, Mean ([1]; 1μM, first assay): 2.3583
- OD490 value, Well 1 ([1]; 1μM, first assay): 2.1436
- OD490 value, Well 2 ([1]; 1μM, first assay): 2.5164
- OD490 value, Well 3 ([1]; 1μM, first assay): 2.4149
- OD490 value, Mean ([1]; 1μM, second assay): 2.3955
- OD490 value, Well 1 ([1]; 1μM, second assay): 2.2145
- OD490 value, Well 2 ([1]; 1μM, second assay): 2.4935
- OD490 value, Well 3 ([1]; 1μM, second assay): 2.4784
- OD490 value, Mean ([1]; 1μM, third assay): 2.4734
- OD490 value, Well 1 ([1]; 1μM, third assay): 2.4685
- OD490 value, Well 2 ([1]; 1μM, third assay): 2.5532
- OD490 value, Well 3 ([1]; 1μM, third assay): 2.3985
- OD490 value, Mean ([1]; 10μM, first assay): 2.3086
- OD490 value, Well 1 ([1]; 10μM, first assay): 2.1660
- OD490 value, Well 2 ([1]; 10μM, first assay): 2.3778
- OD490 value, Well 3 ([1]; 10μM, first assay): 2.3820
- OD490 value, Mean ([1]; 10μM, second assay): 2.1859
- OD490 value, Well 1 ([1]; 10μM, second assay): 2.2135
- OD490 value, Well 2 ([1]; 10μM, second assay): 2.1456
- OD490 value, Well 3 ([1]; 10μM, second assay): 2.1987
- OD490 value, Mean ([1]; 10μM, third assay): 2.4047
- OD490 value, Well 1 ([1]; 10μM, third assay): 2.2123
- OD490 value, Well 2 ([1]; 10μM, third assay): 2.5652
- OD490 value, Well 3 ([1]; 10μM, third assay): 2.4365
- OD490 value, Mean ([1]; 25μM, first assay): 1.8211
- OD490 value, Well 1 ([1]; 25μM, first assay): 1.4666
- OD490 value, Well 2 ([1]; 25μM, first assay): 1.9622
- OD490 value, Well 3 ([1]; 25μM, first assay): 2.0346
- OD490 value, Mean ([1]; 25μM, second assay): 1.8416
- OD490 value, Well 1 ([1]; 25μM, second assay): 1.7589
- OD490 value, Well 2 ([1]; 25μM, second assay): 1.8637
- OD490 value, Well 3 ([1]; 25μM, second assay): 1.9021
- OD490 value, Mean ([1]; 25μM, third assay): 1.8662
- OD490 value, Well 1 ([1]; 25μM, third assay): 1.7769
- OD490 value, Well 2 ([1]; 25μM, third assay): 1.8252
- OD490 value, Well 3 ([1]; 25μM, third assay): 1.9965
- OD490 value, Mean ([1]; 50μM, first assay): 1.6538
- OD490 value, Well 1 ([1]; 50μM, first assay): 1.2953
- OD490 value, Well 2 ([1]; 50μM, first assay): 1.8006
- OD490 value, Well 3 ([1]; 50μM, first assay): 1.8654
- OD490 value, Mean ([1]; 50μM, second assay): 1.6346
- OD490 value, Well 1 ([1]; 50μM, second assay): 1.5694
- OD490 value, Well 2 ([1]; 50μM, second assay): 1.6357
- OD490 value, Well 3 ([1]; 50μM, second assay): 1.6987
- OD490 value, Mean ([1]; 50μM, third assay): 1.6911
- OD490 value, Well 1 ([1]; 50μM, third assay): 1.6532
- OD490 value, Well 2 ([1]; 50μM, third assay): 1.7755
- OD490 value, Well 3 ([1]; 50μM, third assay): 1.6445
- OD490 value, Mean ([1]; 100μM, first assay): 1.1310
- OD490 value, Well 1 ([1]; 100μM, first assay): 0.9154
- OD490 value, Well 2 ([1]; 100μM, first assay): 1.2917
- OD490 value, Well 3 ([1]; 100μM, first assay): 1.1859
- OD490 value, Mean ([1]; 100μM, second assay): 1.0983
- OD490 value, Well 1 ([1]; 100μM, second assay): 1.1234
- OD490 value, Well 2 ([1]; 100μM, second assay): 1.1125
- OD490 value, Well 3 ([1]; 100μM, second assay): 1.0589
- OD490 value, Mean ([1]; 100μM, third assay): 1.1051
- OD490 value, Well 1 ([1]; 100μM, third assay): 1.0232
- OD490 value, Well 2 ([1]; 100μM, third assay): 1.1136
- OD490 value, Well 3 ([1]; 100μM, third assay): 1.1784
- IC50 ([1]; Homo sapiens, HeLa, 24 h, MTS assay, 24 h exposure): 75.6 µM
